Experiments:
[1] = test system: human neuroblastoma cell lines SH-SY5Y; assay: Improvement of mitochondrial dysfunction in MPP+-treated SH-SY5Y cells (Alamar Blue mitochondrial oxidation reduction activity); type: cell-based; details: SH-SY5Y cells in 1.5 mM MPP+ medium, relative to cells in DMSO alone = 100%, read-out: Fluorescence Intensity (%); for activity at 0.01 µg/mL: test compound 0.01 μg/ml; for activity at 0.03 µg/mL: test compound 0.03 μg/ml; for activity at 0.1 µg/mL: test compound 0.1 μg/ml; for activity at 0.3 µg/mL: test compound 0.3 μg/ml; for activity at 1 µg/mL: test compound 1 μg/ml
Procedure: Evaluation of Improvement of Mitochondrial Dysfunction using Human Neuroblastoma Cell Lines SH-SY5Y Treated with 1-methyl-4-phenylpyridinium (MPP^+)
In human neuroblastoma cell lines SH-SY5Y in which mitochondrial activity was injured by MPP^+ treatment (Bollimuntha S. et al., J Biol Chem, 280, 2132-2140 (2005) and Shang T. et al., J Biol Chem, 280, 34644-34653 (2005)), improvement of the mitochondrial dysfunction was evaluated on the basis of the measurement value of the mitochondrial oxidation reduction activity using Alamar Blue fluorescent dye after the compound addition (Nakai M. et. al, Exp Neurol, 179, 103-110 (2003)).
The human neuroblastoma cell lines SH-SY5Y were cultured in Dulbecco's Modified Eagle's Medium containing 10% fetal bovine serum (DMEM containing 50 units/ml penicillin and 50 μg/ml streptomycin as antibiotics) at 37° C. in the presence of 5% carbon dioxide. Cells were scattered on a poly-D-lysine-coated 96-well black plate at a concentration of 3-6×10^4 cells/cm^2 (medium amount: 100 μl/well), and cultured in the above medium for two days. Further, the medium was changed to a DMEM containing a 1% N2 supplement (N2-DMEM) or to a medium (100 μl/well) in which 1.5 mM MPP^+ was dissolved. The cells were cultured therein for 39 to 48 hours, and then subjected to a mitochondrial oxidation reduction activity measurement system. A sample compound that had been previously dissolved in dimethyl sulfoxide (DMSO) was diluted with N2-DMEM, and added in a volume of 10 μl/well 24 hours before the activity measurement (final compound concentration: 0.01 to 1 μg/ml).
After removal of the medium by suction, a balanced salt solution containing 10% Alamar Blue (154 mM sodium chloride, 5.6 mM potassium chloride, 2.3 mM calcium chloride, 1.0 mM magnesium chloride, 3.6 mM sodium bicarbonate, 5 mM glucose, 5 mM HEPES, pH 7.2) was added in a volume of 100 μl/well, and reacted in an incubator at 37° C. for 1 hour. The fluorescent intensity was detected using a fluorescence detector (a product of Hamamatsu Photonics K.K., excitation wavelength 530 nm, measurement wavelength 580 nm) to thereby measure the mitochondrial oxidation reduction activity.
The fluorescent intensity of the well of the cells cultured in a medium containing MPP^+ and in each of the sample compounds was relatively evaluated based on a 100% fluorescent intensity of the well of the cells cultured in a medium containing DMSO alone (final concentration: 0.1%).

| Structure (SMILES) | melting point [°C] | activity at 0.01 µg/mL [1] [%] | activity at 0.03 µg/mL [1] [%] | activity at 0.1 µg/mL [1] [%] | activity at 0.3 µg/mL [1] [%] | activity at 1 µg/mL [1] [%] |
| --- | --- | --- | --- | --- | --- | --- |
| CCCN(C)c1ccc(F)c2c(=O)c(-c3ccc(OC)cc3)c[nH]c12 [Example 30, 5-Fluoro-3-(4-methoxyphenyl)-8-(N-methyl-N-propylamino)-1H-quinolin-4-one] | 145 to 146 | 50 | 54 | 69 | 64 | 56 |
| CCCOc1cc(F)c(F)c2c(=O)c(-c3ccc(OC)cc3)c[nH]c12 [Example 21, 5,6-Difluoro-3-(4-methoxyphenyl)-8-propoxy-1H-quinolin-4-one] | 198 to 200 | 52 | 59 | 63 | 74 | 57 |
| COc1ccc(-c2c[nH]c3c(OCC4CC4)ccc(F)c3c2=O)cc1 [Example 24, 8-Cyclopropylmethoxy-5-fluoro-3-(4-methoxyphenyl)-1H-quinolin-4-one] | 190 to 191 | 60 | 70 | 82 | 78 | 84 |
| CCCOc1ccc(F)c2c(=O)c(-c3ccoc3)c[nH]c12 [Example 1, 5-Fluoro-3-furan-3-yl-8-propoxy-1H-quinolin-4-one] | 214 to 215 | 51 | 62 | 70 | 66 | 64 |
| COCCN(C)c1ccc(F)c2c(=O)c(-c3ccc(OC)cc3)c[nH]c12.Cl [Example 34, 5-Fluoro-8-[N-(2-methoxyethyl)-N-methylamino]-3-(4-methoxyphenyl)-1H-quinolin-4-one hydrochloride] | 100 to 101 | 69 | 74 | 77 | 78 | 87 |
| CCCOc1ccc(F)c2c(=O)c(-c3ccc(OCC4CC4)cc3)c[nH]c12 [Example 35, 3-(4-Cyclopropylmethoxyphenyl)-5-fluoro-8-propoxy-1H-quinolin-4-one] | 162 to 163 | 75 | 88 | 99 | 95 | 65 |
| COc1ccc(-c2c[nH]c3c(N(C)C4CCCCC4)ccc(F)c3c2=O)cc1 [Example 25, 8-(N-Cyclohexyl-N-methylamino)-5-fluoro-3-(4-methoxyphenyl)-1H-quinolin-4-one] | 224 to 225 | 46 | 56 | 66 | 50 | 24 |
| CCCOc1ccc(F)c2c(=O)c(-c3ccc(OC)c(Cl)c3)c[nH]c12 [Example 4, 3-(3-Chloro-4-methoxyphenyl)-5-fluoro-8-propoxy-1H-quinolin-4-one] | 217 to 218 | 56 | 61 | 70 | 72 | 59 |
| CCCOc1ccc(F)c2c(=O)c(-c3ccsc3)c[nH]c12 [Example 3, 5-Fluoro-8-propoxy-3-thiophen-3-yl-1H-quinolin-4-one] | 208 to 210 | 54 | 63 | 70 | 78 | 74 |

Now from value to molecule, other results behind:

| melting point [°C] | Structure (SMILES) | activity at 0.01 µg/mL [1] [%] | activity at 0.03 µg/mL [1] [%] | activity at 0.1 µg/mL [1] [%] | activity at 0.3 µg/mL [1] [%] | activity at 1 µg/mL [1] [%] |
| --- | --- | --- | --- | --- | --- | --- |
| 213 to 215 | COc1ccc(-c2c[nH]c3c(OC4CCCC4)ccc(F)c3c2=O)cc1 [Example 37, 8-Cyclopentyloxy-5-fluoro-3-(4-methoxyphenyl)-1H-quinolin-4-one] | 64 | 73 | 78 | 70 | 61 |
| 209 to 211 | COc1ccc(-c2c[nH]c3c(-c4ccco4)ccc(F)c3c2=O)cc1 [Example 86, 5-Fluoro-8-furan-2-yl-3-(4-methoxyphenyl)-1H-quinolin-4-one] | 52 | 59 | 68 | 61 | 39 |
| 60 to 62 | CCCOc1ccc(F)c2c(=O)c(-c3ccc(OC)cc3)cn(CC3CC3)c12 [Example 94, 1-Cyclopropylmethyl-5-fluoro-3-(4-methoxyphenyl)-8-propoxy-1H-quinolin-4-one] | 56 | 67 | 69 | 59 | 41 |
| 211 to 213 | CCCOc1ccc(F)c2c(=O)c(-c3cccs3)c[nH]c12 [Example 59, 5-Fluoro-8-propoxy-3-thiophen-2-yl-1H-quinolin-4-one] | 53 | 56 | 67 | 66 | 54 |
| 150 to 152 | CCn1cc(-c2ccc(OC)cc2)c(=O)c2c(F)ccc(OCC3CC3)c21 [Example 66, 8-Cyclopropylmethoxy-1-ethyl-5-fluoro-3-(4-methoxyphenyl)-1H-quinolin-4-one] | 66 | 72 | 83 | 77 | 60 |
| 108 to 109 | CCCOc1ccc(F)c2c(=O)c(-c3ccc(OC)cc3)cn(CCOCC)c12 [Example 93, 1-(2-Ethoxyethyl)-5-fluoro-3-(4-methoxyphenyl)-8-propoxy-1H-quinolin-4-one] | 66 | 79 | 86 | 80 | 69 |
| 142 to 144 | COCCOc1ccc(F)c2c(=O)c(-c3ccc(OC)cc3)c[nH]c12 [Example 36, 5-Fluoro-8-(2 methoxyethoxy)-3-(4-methoxyphenyl)-1H-quinolin-4-one] | 63 | 65 | 74 | 71 | 91 |
| 206 to 207 | CCCOc1ccc(F)c2c(=O)c(-c3ccc(N(C)C)cc3)c[nH]c12 [Example 61, 3-(4-Dimethylaminophenyl)-5-fluoro-8-propoxy-1H-quinolin-4-one] | 70 | 65 | 85 | 80 | 86 |
| 181 to 184 | CCCOc1ccc(F)c2c(=O)c(-c3ccsc3CO)c[nH]c12 [Example 100, 5-Fluoro-3-(2-hydroxymethylthiophen-3-yl)-8-propoxy-1H-quinolin-4-one] | 56 | 56 | 71 | 73 | 84 |
| 198 to 199 | CCCOc1ccc(F)c2c(=O)c(-c3ccc(OC)nc3OC)c[nH]c12 [Example 64, 3-(2,6-Dimethoxypyridin-3-yl)-5-fluoro-8-propoxy-1H-quinolin-4-one] | 55 | 65 | 74 | 72 | 77 |
| 147 to 148 | CCCOc1ccc(F)c2c(=O)c(-c3ccc(OC)cc3)cn(C)c12 [Example 91, 5-Fluoro-3-(4-methoxyphenyl)-1-methyl-8-propoxy-1H-quinolin-4-one] | 65 | 69 | 81 | 82 | 83 |

Source: patent publication US20160304461A1, “QUINOLONE COMPOUND AND PHARMACEUTICAL COMPOSITION” (OTSUKA PHARMACEUTICAL CO., LTD., priority 2007, published 2016)
